Literature values, collected in US10597315B2, “Method of disinfection of drinking water using ozone and silver cations” (KAUNO TECHNOLOGIJOS UNIVERSITETAS, priority 2015, dated 2020).

Legend:
[1] = World Health Organization

[Ag+] [silver]
Ingested silver absorbed in the intestine: 10% | Ingested silver excreted from the body via the faeces: 90% | Silver in drinking water tolerable without any risk to health [1]: up to 0.1 mg/kg
